Measurements taken from PubChem BioAssay (NCI).
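Five compound concentrations were applied to cells in 96-well plates for 48 hours; endpoints were derived by simple linear interpolation of the resulting dose-response curve. GI50 = concentration required for 50% inhibition of growth. TGI denotes the concentration required for complete inhibition of growth.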

How the values were obtained:
Experiment in all cases: DTP human tumour cell line panel, 48 h
OVCAR-5 ovarian = test system: OVCAR-5 ovarian
NCI/ADR-RES ovarian = test system: NCI/ADR-RES ovarian
MOLT-4 leukemia = test system: MOLT-4 leukemia
SF-295 CNS = test system: SF-295 CNS
TK-10 renal = test system: TK-10 renal
NCI-H23 lung = test system: NCI-H23 lung
A549 NSCLC = test system: A549 NSCLC
LOX IMVI melanoma = test system: LOX IMVI melanoma
NCI-H522 lung = test system: NCI-H522 lung
RXF 393 renal = test system: RXF 393 renal
M14 melanoma = test system: M14 melanoma
NCI-H226 lung = test system: NCI-H226 lung
MDA-MB-435 = test system: MDA-MB-435
OVCAR-8 ovarian = test system: OVCAR-8 ovarian
T-47D breast = test system: T-47D breast
DU-145 prostate = test system: DU-145 prostate
RPMI-8226 leukemia = test system: RPMI-8226 leukemia
SK-OV-3 ovarian = test system: SK-OV-3 ovarian
SNB-19 CNS = test system: SNB-19 CNS
PC-3 prostate = test system: PC-3 prostate
SF-268 CNS = test system: SF-268 CNS
HCC-2998 colon = test system: HCC-2998 colon
HCT-116 colon = test system: HCT-116 colon
U251 CNS = test system: U251 CNS
SK-MEL-28 melanoma = test system: SK-MEL-28 melanoma
EKVX NSCLC = test system: EKVX NSCLC
SK-MEL-2 melanoma = test system: SK-MEL-2 melanoma
SN12C renal = test system: SN12C renal

For `COc1ccc(-c2csc(NC(=O)CSc3nc(C)c(-c4ccccc4)n3Nc3ccccc3)n2)cc1`, the GI50 (OVCAR-5 ovarian) was > 100 µM, the TGI (OVCAR-5 ovarian) was > 100 µM and the GI50 (NCI/ADR-RES ovarian) was 4.21 µM. The TGI (NCI/ADR-RES ovarian) was > 100 µM, the GI50 (MOLT-4 leukemia) was 3.78 µM and the TGI (MOLT-4 leukemia) was > 100 µM. For the same molecule, the GI50 (SF-295 CNS) was 0.566 µM, the TGI (SF-295 CNS) was > 100 µM and the GI50 (TK-10 renal) was > 100 µM. The TGI (TK-10 renal) was > 100 µM, the GI50 (NCI-H23 lung) was 4.96 µM and the TGI (NCI-H23 lung) was > 100 µM. For the same molecule, the GI50 (A549 NSCLC) was 4.87 µM, the TGI (A549 NSCLC) was > 100 µM and the GI50 (LOX IMVI melanoma) was 5.85 µM. For the same molecule, the TGI (LOX IMVI melanoma) was > 100 µM, the GI50 (NCI-H522 lung) was 3.35 µM and the TGI (NCI-H522 lung) was > 100 µM. The GI50 (RXF 393 renal) was > 100 µM, the TGI (RXF 393 renal) was > 100 µM and the GI50 (M14 melanoma) was 8.66 µM. For the same molecule, the TGI (M14 melanoma) was > 100 µM, the GI50 (NCI-H226 lung) was > 100 µM and the TGI (NCI-H226 lung) was > 100 µM. For the same molecule, the GI50 (MDA-MB-435) was 5.77 µM, the TGI (MDA-MB-435) was > 100 µM and the GI50 (OVCAR-8 ovarian) was 3.48 µM. For the same molecule, the TGI (OVCAR-8 ovarian) was > 100 µM, the GI50 (T-47D breast) was 2.82 µM and the TGI (T-47D breast) was 7.49 µM. For the same molecule, the GI50 (DU-145 prostate) was 18 µM, the TGI (DU-145 prostate) was > 100 µM and the GI50 (RPMI-8226 leukemia) was 6.74 µM. For the same molecule, the TGI (RPMI-8226 leukemia) was > 100 µM, the GI50 (SK-OV-3 ovarian) was > 100 µM and the TGI (SK-OV-3 ovarian) was > 100 µM. The GI50 (SNB-19 CNS) was > 100 µM, the TGI (SNB-19 CNS) was > 100 µM and the GI50 (PC-3 prostate) was 5.16 µM. For the same molecule, the TGI (PC-3 prostate) was > 100 µM, the GI50 (SF-268 CNS) was 9.05 µM and the TGI (SF-268 CNS) was > 100 µM. The GI50 (HCC-2998 colon) was > 100 µM, the TGI (HCC-2998 colon) was > 100 µM and the GI50 (HCT-116 colon) was 5.32 µM. The TGI (HCT-116 colon) was > 100 µM, the GI50 (U251 CNS) was > 100 µM and the TGI (U251 CNS) was > 100 µM. For the same molecule, the GI50 (SK-MEL-28 melanoma) was > 100 µM, the TGI (SK-MEL-28 melanoma) was > 100 µM and the GI50 (EKVX NSCLC) was 3.8 µM. For the same molecule, the TGI (EKVX NSCLC) was > 100 µM, the GI50 (SK-MEL-2 melanoma) was 9.52 µM and the TGI (SK-MEL-2 melanoma) was > 100 µM. For the same molecule, the GI50 (SN12C renal) was 4.03 µM.
